Source: patent US8093288B2, “Genipin derivatives and uses thereof” (Beth Israel Deaconess Medical Center, priority 2003, dated 2012)
Entries after “also recorded” stand apart in the source; their conditions may differ.

Experiments:
[1] = tested on: pancreatic islets from UCP2 knockout mice; test: Insulin secretion in isolated pancreatic islets from UCP2 knockout mice; type: cell-based; conditions: 5.5 mM glucose, 50 nM, 0.5 μM and 5 μM genipin, 37° C. for 60 min, FIG. 4 / FIG. 11B
Procedure: As used or herein, pancreatic islets from wildtype and UCP2 knockout mice were isolated according to a method used for rats (Cawthorn and Chan, Mol. Cell. Endocrinol. 1991, 75:197-204, the entire teachings of which are incorporated herein by reference), except that the total exposure to type XI collagenase (Worthington Biochemical Co., NJ) was 30 min. and the Ficoll gradient was altered to layers of 25%, 23%, 21%, and 11%. Islets were harvested from the 11%-21% interface.
Islets were cultured in RPMI medium containing 11.0 mM glucose and supplemented with 1% penicillin-streptomycin. 7.5% fetal bovine serum (all from Gibco/BRL, Burlington, ON), and 10 mM Hepes (Sigma). After culturing for 20-24 hr, the islets were transferred to microcentrifuge tubes, pelleted (800 g for 5 min), and the medium aspirated and replaced with 1.0 mL DME medium containing 1% gelatin and 5.5 mM glucose with no genipin (control), 50 nM genipin, 0.5 μM genipin, and 5 μM genipin. For insulin secretion studies, the three islets were incubated per tube. After incubation at 37° C. for 60 min., the islets were centrifuged. The supernatant was collected and stored at −80° C., and then later assayed for insulin using Rat Insulin ELISA Kit (Cat. No. INSKR020, Crystal Chem., Inc., Chicago, Ill.).
FIGS. 11B and 11C show their effects on insulin secretion. Pancreatic islets were isolated from WT or UCP2 knockout (KO) mice. […]

[2] = tested on: high fat diet-fed UCP2 knockout mice; test: Blood glucose and insulin after genipin injection in high fat diet-fed UCP2 knockout mice; type: in vivo; conditions: high fat diet 24 weeks, 20 hours fasting, 300 μg genipin injected, thirty minutes after injection
Procedure: Wildtype and UCP2 knockout mice were placed on a high fat diet obtained from Research Diets Inc., New Brunswick, N.J. (cat. no. D12331, HFD). The fat source was coconut oil and comprised 58% of the total calories. The mice remained on the high fat diet for 24 weeks. After the 24 weeks, both the wildtype and the UCP2 knockout mice were obese (about 50-60 g). After 20 hours of fasting, the blood glucose and insulin levels of the mice were measured, then the mice were injected with 300 μg of genipin. Thirty minutes after injection the blood glucose and insulin levels of the mice were measured again. Blood glucose levels were assessed using a glucometer (One touch, Lifescan, Milpitas, Calif.). Serum insulin concentrations were assessed using mouse insulin as a standard (Rat Insulin ELISA Kit. cat. #INSKR020 Crystal Chem. Inc., Chicago, Ill.). […] A comparison of the effect of genipin on the blood glucose levels and insulin levels in wildtype and UCP2 knockout mice can be seen in FIGS. 7 and 10, respectively.

UCP2 KO mice = test: Serum insulin in vivo after genipin injection in UCP2 KO mice; conditions: genipin 10 mg/kg injected, FIGS. 13A, 13B
Procedure: UCP2-deficient mice have increased serum insulin levels. Genipin inhibits UCP2 activity, and thus should stimulate insulin secretion acutely in vivo. In the present study, the effect of genipin on insulin secretion in vivo was assessed. WT and UCP2 KO mice were fed a chow diet (FIG. 13A), or placed on a high fat diet (HFD) (FIG. 13B) (#D12331, obtained from Research Diets Inc., New Brunswick, N.J.). The fat source was coconut oil and comprised 58% of the total calories. The mice remained on the HFD for 24 weeks. Both WT and KO mice were obese (50-60 g). ob/ob mice (FIG. 13C) were obtained from The Jackson Laboratory. After 6 hours (FIG. 13A) or 20 hours (FIGS. 13B and 13C) of fasting, genipin (10 mg/kg (FIGS. 13A and 13B), or 20 mg/kg (FIG. 13C)) was injected into the mice. Serum insulin levels were measured before and after administration of genipin as indicated.

Structure (SMILES): COC(=O)C1=CO[C@@H](O)[C@@H]2C(CO)=CC[C@H]12 [genipin]
- insulin secretion [1]: does not increase insulin secretion; also recorded: no effect on insulin secretion
- blood glucose levels ([2]; FIG. 6): little effect
- insulin levels ([2]; FIG. 9): little effect
- serum insulin levels (UCP2 KO mice): no effect on insulin levels
